Assay results published in patent publication US6737383B1, “Herbicidal oxadiazolidines” (priority 1999, dated 2004).

Tests used:
bedstraw = test: Test B pre/postemergence bedstraw; assay type: in vivo, Galium aparine
Outline: (§1)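 Herbicidal effect was estimated by eye on a ten-point control scale after plants spent twelve to sixteen days in a greenhouse following soil or foliar treatment. Foliar sprays targeted plants at one to four leaves; all doses were formulated in a non-phytotoxic solvent with surfactant.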

blackgrass = test: Test B pre/postemergence blackgrass; assay type: in vivo, Alopecurus myosuroides
Outline: as §1

surinam grass = test: Test B pre/postemergence surinam grass; assay type: in vivo, Brachiaria decumbens
Outline: as §1

cocklebur = test: Test B pre/postemergence cocklebur; assay type: in vivo, Xanthium strumarium
Outline: as §1

corn = test: Test B pre/postemergence corn; assay type: in vivo, Zea mays
Outline: as §1

crabgrass = test: Test B pre/postemergence crabgrass; assay type: in vivo, Digitaria sanguinalis
Outline: as §1

morningglory = test: Test B pre/postemergence morningglory; assay type: in vivo, Ipomoea hederacea
Outline: as §1

pigweed = test: Test B pre/postemergence pigweed; assay type: in vivo, Amaranthus retroflexus
Outline: as §1

rape = test: Test B pre/postemergence rape; assay type: in vivo, Brassica napus
Outline: as §1

sugar beet = test: Test B pre/postemergence sugar beet; assay type: in vivo, Beta vulgaris
Outline: as §1

velvetleaf = test: Test B pre/postemergence velvetleaf; assay type: in vivo, Abutilon theophrasti
Outline: as §1

wheat = test: Test B pre/postemergence wheat; assay type: in vivo, Triticum aestivum
Outline: as §1

wild oat = test: Test B pre/postemergence wild oat; assay type: in vivo, Avena fatua
Outline: as §1

purple nutsedge = test: Test B pre/postemergence purple nutsedge; assay type: in vivo, Cyperus rotundus
Outline: as §1

smallflower flatsedge = test: Test B flood test smallflower flatsedge; assay type: in vivo, Cyperus difformis
Outline: (§2)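 Flood test on plants grown to the 2-leaf stage; treated plants kept in greenhouse twelve to sixteen days, then visually rated against controls on a 0 (no effect) to 10 (complete control) scale.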

duck salad = test: Test B flood test duck salad; assay type: in vivo, Heteranthera limosa
Outline: as §2

[1] = Preemergence, Rate 62 g/ha, scale of 0 to 10 where 0 is no effect and 10 is complete control
[2] = Preemergence, Rate 125 g/ha, 0 is no effect, 10 is complete control
[3] = Preemergence, Rate 250 g/ha, scale 0 to 10, 0 is no effect, 10 is complete control
[4] = Preemergence, Rate 500 g/ha, scale 0 to 10 (0 no effect, 10 complete control)
[5] = Rate 62 g/ha, Postemergence, scale of 0 to 10 where 0 is no effect and 10 is complete control
[6] = Rate 125 g/ha, Postemergence, scale 0 to 10
[7] = Rate 500 g/ha, Postemergence, scale 0 to 10
[8] = Rate 62 g/ha, headed Pre-emergence (flood test species), scale 0 to 10 (0 no effect, 10 complete control)
[9] = Rate 125 g/ha, Pre-emergence, flood test species, scale 0 to 10 where 0 is no effect and 10 is complete control
[10] = Rate 250 g/ha, Pre-emergence, flood-test species, scale 0 to 10, 0 is no effect, 10 is complete control

COc1nc(OC)nc(N(C(=O)n2oc(=O)n(-c3c(C)cccc3C)c2=O)C(C)C)n1 [Compound 180]
0: Bedstraw plant response rating (bedstraw; [1]) | Bedstraw plant response rating (0 to 10 scale) (bedstraw; [2]) | Bedstraw plant response rating (bedstraw; [3]) | Bedstraw plant response rating (bedstraw; [4]) | Bedstraw plant response rating (bedstraw; [5]) | Bedstraw plant response rating (bedstraw; [6]) | Plant response rating (0 to 10; 0 is no effect, 10 is complete control), Bedstraw (bedstraw; Rate 250 g/ha, Postemergence) | Bedstraw plant response rating (bedstraw; [7]) | Blackgrass plant response rating (blackgrass; [1]) | Blackgrass plant response rating (0 to 10 scale) (blackgrass; [2]) | Blackgrass plant response rating (blackgrass; [3]) | Blackgrass plant response rating (blackgrass; [4]) | Blackgrass plant response rating (blackgrass; [5]) | Blackgrass plant response rating (blackgrass; [6]) | Plant response rating (0 to 10; 0 is no effect, 10 is complete control), Blackgrass (blackgrass; Rate 250 g/ha, Postemergence) | Blackgrass plant response rating (blackgrass; [7]) | B. signalgrass plant response rating (surinam grass; [1]) | B. signalgrass plant response rating (0 to 10 scale) (surinam grass; [2]) | B. signalgrass plant response rating (surinam grass; [3]) | B. signalgrass plant response rating (surinam grass; [4]) | B. signalgrass plant response rating (surinam grass; [5]) | B. signalgrass plant response rating (surinam grass; Rate 125 g/ha, Postemergence, scale 0 (no effect) to 10 (complete control)) | Plant response rating, B. signalgrass (surinam grass; Rate 250 g/ha, Postemergence, scale 0 to 10, 0 is no effect, 10 is complete control) | B. signalgrass plant response rating (surinam grass; Rate 500 g/ha, Postemergence, scale 0 to 10, 0 no effect, 10 complete control) | Cocklebur plant response rating (cocklebur; [1]) | Cocklebur plant response rating (0 to 10 scale) (cocklebur; [2]) | Cocklebur plant response rating (cocklebur; [3]) | Cocklebur plant response rating (cocklebur; [4]) | Cocklebur plant response rating (cocklebur; [5]) | Cocklebur plant response rating (cocklebur; [6]) | Plant response rating (0 to 10; 0 is no effect, 10 is complete control), Cocklebur (cocklebur; Rate 250 g/ha, Postemergence) | Cocklebur plant response rating (cocklebur; [7]) | Corn plant response rating (corn; [1]) | Corn plant response rating (0 to 10 scale) (corn; [2]) | Corn plant response rating (corn; [3]) | Corn plant response rating (corn; [4]) | Corn plant response rating (corn; [5]) | Corn plant response rating (corn; [6]) | Plant response rating (0 to 10; 0 is no effect, 10 is complete control), Corn (corn; Rate 250 g/ha, Postemergence) | Corn plant response rating (corn; [7]) | Crabgrass plant response rating (crabgrass; [1]) | Crabgrass plant response rating (0 to 10 scale) (crabgrass; [2]) | Crabgrass plant response rating (crabgrass; [3]) | Crabgrass plant response rating (crabgrass; [4]) | Crabgrass plant response rating (crabgrass; [5]) | Crabgrass plant response rating (crabgrass; [6]) | Plant response rating (0 to 10; 0 is no effect, 10 is complete control), Crabgrass (crabgrass; Rate 250 g/ha, Postemergence) | Crabgrass plant response rating (crabgrass; [7]) | Morningglory plant response rating (morningglory; [1]) | Morningglory plant response rating (0 to 10 scale) (morningglory; [2]) | Morningglory plant response rating (morningglory; [3]) | Morningglory plant response rating (morningglory; [4]) | Morningglory plant response rating (morningglory; [5]) | Morningglory plant response rating (morningglory; [6]) | Plant response rating (0 to 10; 0 is no effect, 10 is complete control), Morningglory (morningglory; Rate 250 g/ha, Postemergence) | Morningglory plant response rating (morningglory; [7]) | Redroot pigweed plant response rating (pigweed; [1]) | Redroot pigweed plant response rating (0 to 10 scale) (pigweed; [2]) | Redroot pigweed plant response rating (pigweed; [3]) | Redroot pigweed plant response rating (pigweed; [4]) | Redroot pigweed plant response rating (pigweed; [5]) | Redroot pigweed plant response rating (pigweed; [6]) | Plant response rating (0 to 10; 0 is no effect, 10 is complete control), Redroot pigweed (pigweed; Rate 250 g/ha, Postemergence) | Redroot pigweed plant response rating (pigweed; [7]) | Rape plant response rating (rape; [1]) | Rape plant response rating (0 to 10 scale) (rape; [2]) | Rape plant response rating (rape; [3]) | Rape plant response rating (rape; [4]) | Rape plant response rating (rape; [5]) | Rape plant response rating (rape; [6]) | Plant response rating (0 to 10; 0 is no effect, 10 is complete control), Rape (rape; Rate 250 g/ha, Postemergence) | Rape plant response rating (rape; [7]) | Sugarbeets plant response rating (sugar beet; [1]) | Sugarbeets plant response rating (0 to 10 scale) (sugar beet; [2]) | Sugarbeets plant response rating (sugar beet; [3]) | Sugarbeets plant response rating (sugar beet; [4]) | Sugarbeets plant response rating (sugar beet; [5]) | Sugarbeets plant response rating (sugar beet; [6]) | Plant response rating (0 to 10; 0 is no effect, 10 is complete control), Sugarbeets (sugar beet; Rate 250 g/ha, Postemergence) | Sugarbeets plant response rating (sugar beet; [7]) | Velvetleaf plant response rating (velvetleaf; [1]) | Velvetleaf plant response rating (velvetleaf; [3]) | Velvetleaf plant response rating (velvetleaf; [4]) | Velvetleaf plant response rating (velvetleaf; [6]) | Plant response rating (0 to 10; 0 is no effect, 10 is complete control), Velvetleaf (velvetleaf; Rate 250 g/ha, Postemergence) | Velvetleaf plant response rating (velvetleaf; [7]) | Wheat plant response rating (wheat; [1]) | Wheat plant response rating (wheat; [3]) | Wheat plant response rating (wheat; [4]) | Wheat plant response rating (wheat; [6]) | Plant response rating (0 to 10; 0 is no effect, 10 is complete control), Wheat (wheat; Rate 250 g/ha, Postemergence) | Wheat plant response rating (wheat; [7]) | Wild oats plant response rating (wild oat; [1]) | Wild oats plant response rating (wild oat; [3]) | Wild oats plant response rating (wild oat; [4]) | Wild oats plant response rating (wild oat; [6]) | Plant response rating (0 to 10; 0 is no effect, 10 is complete control), Wild oats (wild oat; Rate 250 g/ha, Postemergence) | Wild oats plant response rating (wild oat; [7]) | Nutsedge plant response rating (purple nutsedge; [1]) | Nutsedge plant response rating (0 to 10 scale) (purple nutsedge; [2]) | Nutsedge plant response rating (purple nutsedge; [3]) | Nutsedge plant response rating (purple nutsedge; [4]) | Nutsedge plant response rating (purple nutsedge; [5]) | Nutsedge plant response rating (purple nutsedge; [6]) | Plant response rating (0 to 10; 0 is no effect, 10 is complete control), Nutsedge (purple nutsedge; Rate 250 g/ha, Postemergence) | Nutsedge plant response rating (purple nutsedge; [7]) | S. Flatsedge plant response rating (smallflower flatsedge; [8]) | S. Flatsedge plant response rating (smallflower flatsedge; [9]) | S. Flatsedge plant response rating (smallflower flatsedge; [10]) | S. Flatsedge plant response rating (smallflower flatsedge; Rate 500 g/ha, Pre-emergence, flood test species, scale 0 to 10 (0 no effect, 10 complete control)) | Ducksalad plant response rating (duck salad; [8]) | Ducksalad plant response rating (duck salad; [9]) | Ducksalad plant response rating (duck salad; [10]) | Plant response rating, Ducksalad (duck salad; Rate 500 g/ha, headed Pre-emergence (flood test species), scale 0 to 10 (0 no effect, 10 complete control))
